The target of series [1] is VIM-2 (Escherichia coli, UniProt Q5U7L7). The series can be described thus: MBL inhibition, FC-5 fluorescence assay, VIM-2. Format: biochemical. The following applies: FC-5 cephalosporin substrate, ranges of obtained pIC50, read-out: pIC50 VIM-2 (converted). The method in brief: (§1)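 Fluorescence read-out (380 nm excitation, 460 nm emission) tracks fluorophore liberated when each enzyme breaks down cephalosporin substrate FC-5. Initial rates across inhibitor concentrations, each run in quadruplicate on the plate, give normalized curves fitted with a variable Hill slope.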

The nature of series [2]: Plasma protein binding, equilibrium dialysis, mouse plasma. The format is in vitro ADME. To be noted: pH 7.4, equilibrium dialysis (RED) 4 hours at 37° C., read-out: Plasma protein binding, fu, Mouse. As for the experimental part:
The fraction of unbound compound (fu) in plasma from human or other animal species was determined by equilibrium dialysis at 37° C. for 4 hours using the Rapid Equilibrium Dialysis (RED) device (ThermoFisher Scientific). The test compound at a concentration of 10 μM was added to plasma and dialyzed against isotonic phosphate buffer (67 mM, pH 7.4) over 4 hours at 37° C. After dialysis, compound concentrations in buffer and plasma were quantified by LC-MS/MS. In parallel the stability of the compound in plasma was determined by incubating drug-spiked plasma (10 μM) at 37° C. for 4 hours, meanwhile the control plasma sample was kept in the freezer. The concentration of the compound in both samples was quantified by LC-MS/MS (Waters Corp, Milford, MA, USA).

The nature of series [3]: Metabolic stability in human hepatocytes. The format is in vitro ADME. To be noted: cryopreserved human hepatocytes, 1 μM compound, 37° C., up to 90 min, read-out: Metabolic stability in hepatocytes, in vitro t1/2, Human. On the procedure: (§2) Metabolic stability assays were performed in cryopreserved human and mouse hepatocytes. The hepatocytes were thawed and added to “Thawing media”, and centrifuged to pellet the hepatocytes. The cell pellet was taken up in Williams medium E (Invitrogen A1217601), the number of cells was calculated and adjusted to 1.0×10^6 cells/mi. The incubation was carried out on a heater-shaker at […], in a 24-well Picoplate (round bottom, PerkinElmer), using an incubation volume of […]. Thus, to obtain a final compound concentration of 1 μM, 0.7 μl of the 1 mM compound stock solution was pipetted to the wells of the plate. Reaction was initiated by adding 700 μl of cell suspension. Samples were incubated at 37° C. for […] and a zero sample was taken, i.e. 100 μl sample was removed to a 96-well plate and the reaction was quenched by adding 100 μl of 100% MeCN containing 50 nM Warfarin as an internal control. Consecutive samples were taken at time-points 5 min, 15 min, 30 min, 60 min, and 90 min. After finishing the experiment, samples were centrifuged at 3000 rpm for 15 min and before analysis by LC-MS/MS (Waters Corp, Milford, MA, USA).

The nature of series [4]: Metabolic stability in mouse hepatocytes. Format: in vitro ADME. To be noted: cryopreserved mouse hepatocytes, 1 μM compound, 37° C., up to 90 min, read-out: Metabolic stability in hepatocytes, in vitro t1/2, Mouse. On the procedure: as §2
For series [5], the target named is IMP-1 (Serratia marcescens, UniProt P52699). The series can be described thus: MBL inhibition, FC-5 fluorescence assay, IMP-1. Format: biochemical. To be noted: FC-5 cephalosporin substrate, fluorescence; ranges of obtained pIC50; read-out: pIC50 IMP-1 (converted). The method in brief: as §1
Series [6] has as its target NDM-1 (Klebsiella pneumoniae, UniProt C7C422). The series can be described thus: MBL inhibition, FC-5 fluorescence assay, NDM-1. Format: biochemical. To be noted: FC-5 cephalosporin substrate, fluorescence; ranges of obtained pIC50; read-out: pIC50 NDM-1 (converted). The method in brief: as §1
In series [7] the target is VIM-1 (Pseudomonas aeruginosa, UniProt A0A0F7KYQ8). Description: MBL inhibition, FC-5 fluorescence assay, VIM-1. Format: biochemical. To be noted: FC-5 cephalosporin substrate, ranges of obtained pIC50, read-out: pIC50 VIM-1 (converted). The method in brief: as §1
Series [8] in a line: Plasma protein binding, equilibrium dialysis, human plasma. The format is in vitro ADME. To be noted: pH 7.4, equilibrium dialysis (RED) 4 hours at 37° C., read-out: Plasma protein binding, fu, Human. The method in brief: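 Compound at 10 μM in plasma dialysed against 67 mM phosphate buffer pH 7.4 for 4 h at 37° C. in RED device; unbound fraction from buffer and plasma levels by LC-MS/MS. Plasma stability checked in parallel over 4 h at 37° C. versus frozen control.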

The subject of series [9] is Escherichia coli NDM-1. The series can be described thus: Antibiotic susceptibility testing (MIC), EC NDM-1. Format: cell-based. The following applies: agar or broth dilution (CLSI/EUCAST). As for the experimental part:
(§3) Antibiotic susceptibility testing was performed using the agar or broth dilution method, in line with the Clinical and Laboratory Standards Institute (CLSI) and European Committee on Antimicrobial Susceptibility Testing (EUCAST) requirements.
A general note: Dilution methods test growth across graded concentrations, often in twofold steps.

The test system of series [10] is Escherichia coli NDM-7. Description: Antibiotic susceptibility testing (MIC), EC NDM-7. The format is cell-based. The following applies: agar or broth dilution (CLSI/EUCAST). As for the experimental part: as §3
In series [11] the test system is Acinetobacter baumannii NDM-1. The series can be described thus: Antibiotic susceptibility testing (MIC), AB NDM-1. Format: cell-based. The following applies: agar or broth dilution (CLSI/EUCAST). On the procedure:
as §3

Where only a bound is given, the exact number is not on record here.

Sequence of NDM-1 (C7C422 29-270, looked up, species assumed): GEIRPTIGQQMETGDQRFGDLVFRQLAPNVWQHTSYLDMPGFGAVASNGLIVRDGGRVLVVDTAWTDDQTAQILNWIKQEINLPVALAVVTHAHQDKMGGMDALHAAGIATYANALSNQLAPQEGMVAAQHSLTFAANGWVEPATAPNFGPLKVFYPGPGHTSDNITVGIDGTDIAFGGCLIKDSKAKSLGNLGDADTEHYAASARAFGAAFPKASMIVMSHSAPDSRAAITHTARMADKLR
Sequence of IMP-1 (P52699 19-246, looked up, species assumed): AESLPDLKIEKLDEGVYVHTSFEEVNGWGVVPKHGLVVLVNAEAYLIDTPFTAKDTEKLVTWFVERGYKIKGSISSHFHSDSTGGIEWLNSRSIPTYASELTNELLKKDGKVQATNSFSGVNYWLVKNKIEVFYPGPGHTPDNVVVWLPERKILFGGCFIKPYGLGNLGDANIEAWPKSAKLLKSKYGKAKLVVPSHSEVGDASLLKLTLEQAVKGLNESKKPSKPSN

In the case of `C[C@@H](OCc1ccc(CN)cc1)c1cccc2c(-c3ccc(CS(C)(=O)=O)c(Cl)c3)c(C(=O)O)[nH]c12` (single isomer, unassigned) [IC-88], the IC50 in series [1] was over 10 nM; in series [5], 1 to 10 nM; in series [6] it was 0.1 to 1 nM; in series [7] it was over 10 nM. The fraction unbound at 4 h, 10 μM in [2] is under 0.005; in [8], 0.005 to 0.05. Moreover, the values for the half-life at 1 μM in [3] and in series [4] were over 6.67 h and under 2.5 h, respectively.

With `C[C@@H](c1cccc2c(-c3ccc(NS(C)(=O)=O)c(C#N)c3)c(C(=O)O)[nH]c12)N1C[C@]2(C[C@@H](CN)C2)OC1=O` [IC-16, 7-((1S)-1-(2-(aminomethyl)-6-oxo-5-oxa-7-azaspiro[3.4]octan-7-yl)ethyl)-3-(3-cyano-4-(methylsulfonamido)phenyl)-1H-indole-2-carboxylic acid], the “MIC values EC NDM-1” value in series [9] was “A (A = MIC values ≤ 1)”. For the same compound, the IC50 is 0.1 to 1 nM in series [1], over 10 nM in [5], under 0.1 nM in series [6] and 1 to 10 nM in series [7]. For the same compound, the fraction unbound at 4 h, 10 μM in [2] and in series [8] was 0.05 to 0.25 in each case. For the same compound, the half-life at 1 μM in [3] and in [4] was over 6.67 h throughout. The “MIC values EC NDM-7” value in series [10] is “A (A = MIC values ≤ 1)”. Also, the “MIC values AB NDM-1” value in series [11] is “B (B MIC values 2 ÷ 8)”.

As for `C[C@@H](c1cccc2c(-c3ccc(NS(C)(=O)=O)c(C#N)c3)c(C(=O)O)[nH]c12)n1cc(CN2CC(N)C2)oc1=O` [IC-55, 7-[(1S)-1-{5-[(3-aminoazetidin-1-yl)methyl]-2-oxo-2,3-dihydro-1,3-oxazol-3-yl}ethyl]-3-(3-cyano-4-methanesulfonamidophenyl)-1H-indole-2-carboxylic acid], the “MIC values EC NDM-1” value in series [9] is “B (B MIC values 2 ÷ 8)”. Further, the IC50 in [1] is 0.1 to 1 nM; in [5], over 10 nM; in [6], under 0.1 nM; in [7], over 10 nM. Moreover, the figures for the fraction unbound at 4 h, 10 μM in [2] and in series [8] were 0.005 to 0.05 and 0.05 to 0.25, respectively. For the same compound, the half-life at 1 μM in series [3] and in series [4] was 2.5 to 6.67 h in each case. Moreover, the “MIC values EC NDM-7” value in series [10] is “B (B MIC values 2 ÷ 8)”. The “MIC values AB NDM-1” value in [11] was “B (B MIC values 2 ÷ 8)”.

As to `CC(c1noc(CCCN)n1)c1cccc2c(-c3ccc(CS(C)(=O)=O)c(F)c3)c(C(=O)O)[nH]c12` (stereo not drawn) [IC-62, 7-[1-[5-(3-Aminopropyl)-1,2,4-oxadiazol-3-yl]ethyl]-3-[3-fluoro-4-(methylsulfonylmethyl)phenyl]-1H-indole-2-carboxylic acid], the “MIC values EC NDM-1” value in series [9] is recorded as “A (A = MIC values ≤ 1)”. Also, the IC50 was 0.1 to 1 nM in [1], 1 to 10 nM in [5], under 0.1 nM in series [6] and 0.1 to 1 nM in series [7]. For the same compound, the fraction unbound at 4 h, 10 μM in series [2] is 0.005 to 0.05; in [8], 0.05 to 0.25. Besides, the values for the half-life at 1 μM in series [3] and in series [4] were over 6.67 h and 2.5 to 6.67 h, respectively. Moreover, the “MIC values EC NDM-7” value in [10] is “A (A = MIC values ≤ 1)”. Moreover, in [11], the “MIC values AB NDM-1” value is on record as “A (A = MIC values ≤ 1)”.

Turning to `CC(OCc1ccc(CN)cc1)c1cccc2c(-c3ccc(NS(C)(=O)=O)c(C#N)c3)c(C(=O)O)[nH]c12` (stereo not drawn) [IC-86, 7-(1-((4-(Aminomethyl)benzyl)oxy)ethyl)-3-(3-cyano-4-(methylsulfonamido)phenyl)-1H-indole-2-carboxylic acid], the IC50 in series [1] was 1 to 10 nM; in [5], over 10 nM; in series [6], under 0.1 nM; in series [7], over 10 nM. Besides, the fraction unbound at 4 h, 10 μM in series [2] lay within 0.05 to 0.25; in series [8], 0.005 to 0.05. In addition, the half-life at 1 μM in [3] is over 6.67 h; in [4], under 2.5 h.

On to `CC(OCC1CCNCC1)c1cccc2c(-c3ccc(CS(C)(=O)=O)c(F)c3)c(C(=O)O)[nH]c12` (stereo not drawn) [IC-89, 3-(3-Fluoro-4-((methylsulfonyl)methyl)phenyl)-7-(1-(piperidin-4-ylmethoxy)ethyl)-1H-indole-2-carboxylic acid], for which the IC50 in [1] is 1 to 10 nM; in [5] it was over 10 nM; in series [6], 0.1 to 1 nM; in series [7] it was 1 to 10 nM. Further, the fraction unbound at 4 h, 10 μM in [2] and in series [8] was 0.05 to 0.25 each time. Also, the half-life at 1 μM in series [3] and in [4] was over 6.67 h in each case.

In the case of `CC(Oc1ccc(CN)cc1)c1cccc2c(-c3ccc(CS(C)(=O)=O)c(F)c3)c(C(=O)O)[nH]c12` (stereo not drawn) [IC-92, 7-(1-(4-(Ammoniomethyl)phenoxy)ethyl)-3-(3-fluoro-4-((methylsulfonyl)methyl)phenyl)-1H-indole-2-carboxylate], the IC50 in [1], in series [5], in series [6] and in series [7] was 1 to 10 nM in each case. Further, the results for the fraction unbound at 4 h, 10 μM in series [2] and in [8] were 0.005 to 0.05 and 0.05 to 0.25, respectively. For the same compound, the half-life at 1 μM in series [3] is over 6.67 h; in series [4], 2.5 to 6.67 h.

Consider `CC(OC(=O)N1CCC(CN)CC1)c1cccc2c(-c3ccc(CS(C)(=O)=O)c(F)c3)c(C(=O)O)[nH]c12` (stereo not drawn) [IC-95, 7-(1-((4-(Aminomethyl)piperidine-1-carbonyl)oxy)ethyl)-3-(3-fluoro-4-((methylsulfonyl)methyl)phenyl)-1H-indole-2-carboxylic acid], for which the IC50 was 1 to 10 nM in [1], over 10 nM in series [5], 0.1 to 1 nM in [6] and over 10 nM in series [7]. For the same compound, the fraction unbound at 4 h, 10 μM in series [2] was 0.005 to 0.05; in series [8] it was 0.05 to 0.25. The half-life at 1 μM in series [3] and in [4] was over 6.67 h in each case.

On to `CC(c1cccc2c(-c3ccc(CS(C)(=O)=O)c(F)c3)c(C(=O)O)[nH]c12)N(C)C(=O)c1ccc(CN)cc1` (stereo not drawn) [IC-97, 7-(1-(4-(Aminomethyl)-N-methylbenzamido)ethyl)-3-(3-fluoro-4-((methylsulfonyl)methyl)phenyl)-1H-indole-2-carboxylic acid], for which the IC50 in series [1] is 1 to 10 nM; in series [5] it was over 10 nM; in series [6], 1 to 10 nM; in [7], over 10 nM. The fraction unbound at 4 h, 10 μM in [2] and in [8] was 0.05 to 0.25 each time. In addition, the half-life at 1 μM is over 6.67 h in series [3] and under 2.5 h in series [4].

These data come from US20240246913A1, “2-CARBOXYL-INDOLE INHIBITORS OF METALLO-BETA-LACTAMASES” (Oxford University Innovation Limited, priority 2021, published 2024).
